According to US12441762B2, “Hepatitis c virus NS3/4A protease inhibitors” (priority 2019, dated 2025):

Experiments:
[1] = biological target: T1, HCV NS3/4A protease D168A variant (Hepatitis C virus genotype 1a, UniProt P27958, C1185S/D1194A); experiment: biochemical; assay type: biochemical
T1 construct: His-tag (cleaved yes); made in house; host or cells: Escherichia coli BL21(DE3), PET28a vector
Description: (§1) The HCV GT1a NS3/4A protease gene described in the Bristol Myers Squibb patent was synthesized by GenScript and cloned into a PET28a expression vector. Cys159 was mutated to a serine residue to prevent disulfide bond formation and facilitate crystallization. The D168A gene was engineered using the site-directed mutagenesis protocol from Stratagene. Protein expression and purification were carried out as previously described.
(§2) Km constants for GT1 and D168A protease were previously determined. […] Inner filter effect corrections were applied to the initial velocities (Vo) at each substrate concentration. Vo versus substrate concentration graphs were globally fit to the Michaelis-Menten equation to obtain the Km value.
(§3) For each assay, 2 nM of NS3/4A protease (GT1a and D168A) was pre-incubated at room temperature for 1 h with increasing concentration of inhibitors in assay buffer (50 mM Tris, 5% glycerol, 10 mM DTT, 0.6 mM LDAO, and 4% dimethyl sulfoxide, pH 7.5). Inhibition assays were performed in non-binding surface 96-well black half-area plates (Corning) in a reaction volume of 60 μL. […] Three independent data sets were collected for each inhibitor with each protease construct.

[2] = biological target: T2, wild-type HCV NS3/4A protease (GT1a) (Hepatitis C virus genotype 1a, UniProt P27958, C1185S); experiment: biochemical; assay type: biochemical
T2 construct: His-tag (cleaved yes); made in house; host or cells: Escherichia coli BL21(DE3), PET28a vector
Description: as §1, §2, §3

T2 sequence (P27958 1027-1208 C1185S): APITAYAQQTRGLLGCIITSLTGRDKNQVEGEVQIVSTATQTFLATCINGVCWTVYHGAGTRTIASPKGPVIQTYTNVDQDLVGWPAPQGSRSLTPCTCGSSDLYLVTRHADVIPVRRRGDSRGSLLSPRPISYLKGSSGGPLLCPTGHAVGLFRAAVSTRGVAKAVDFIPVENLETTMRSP
T1 sequence (P27958 1027-1208 C1185S/D1194A): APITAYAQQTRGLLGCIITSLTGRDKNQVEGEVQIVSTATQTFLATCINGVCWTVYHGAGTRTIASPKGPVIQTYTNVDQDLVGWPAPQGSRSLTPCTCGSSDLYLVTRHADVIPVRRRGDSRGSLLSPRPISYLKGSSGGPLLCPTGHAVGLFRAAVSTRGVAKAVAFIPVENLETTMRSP

Compound `COc1ccc2nc(C(F)(F)F)c(O[C@@H]3C[C@H]4C(=O)N[C@]5(C(=O)NS(=O)(=O)C6(C)CC6)C[C@H]5/C=C\CCCCC[C@H](NC(=O)O[C@H](C)C(C)C)C(=O)N4C3)nc2c1` [NR01-121, (R)-3-Methylbutan-2-yl ((2R,6S,13aS,14aR,16aS,Z)-2-((7-methoxy-3-(trifluoromethyl)quinoxalin-2-yl)oxy)-14a-(((1-methylcyclopropyl)sulfonyl)carbamoyl)-5,16-dioxo-1,2,3,5,6,7,8,9,10,11,13a,14,14a,15,16,16a-hexadecahydrocyclopropa[e]pyrrolo[1,2-a][1,4]diazacyclopentadecin-6-yl)carbamate] has a Ki [1] of 10.4 ± 0.9 nM and a Ki [2] of 2.96 ± 0.22 nM.

Compound `COc1ccc2nc(C)c(O[C@@H]3C[C@H]4C(=O)N[C@]5(C(=O)NS(=O)(=O)C6(C)CC6)C[C@H]5/C=C\CCCCC[C@H](NC(=O)OC5CCC5)C(=O)N4C3)nc2c1` [NR01-127, Cyclobutyl ((2R,6S,13aS,14aR,16aS,Z)-2-((7-methoxy-3-methylquinoxalin-2-yl)oxy)-14a-(((1-methylcyclopropyl)sulfonyl)carbamoyl)-5,16-dioxo-1,2,3,5,6,7,8,9,10,11,13a,14,14a,15,16,16a-hexadecahydrocyclopropa[e]pyrrolo[1,2-a][1,4]diazacyclopentadecin-6-yl)carbamate] has a Ki [1] of 52.4 ± 9 nM and a Ki [2] of 0.3 ± 0.2 nM.

For `COc1ccc2nc(C(F)(F)F)c(O[C@@H]3C[C@H]4C(=O)N[C@]5(C(=O)NS(=O)(=O)C6(C)CC6)C[C@H]5/C=C\CCCCC[C@H](NC(=O)OC(C)(C)C(F)(F)F)C(=O)N4C3)nc2c1` [NR01-129, 1,1,1-Trifluoro-2-methylpropan-2-yl ((2R,6S,13aS,14aR,16aS,Z)-2-((7-methoxy-3-(trifluoromethyl)quinoxalin-2-yl)oxy)-14a-(((1-methylcyclopropyl)sulfonyl)carbamoyl)-5,16-dioxo-1,2,3,5,6,7,8,9,10,11,13a,14,14a,15,16,16a-hexadecahydrocyclopropa[e]pyrrolo[1,2-a][1,4]diazacyclopentadecin-6-yl)carbamate], the Ki [1] was 15.5 ± 1.8 nM and the Ki [2] was 3.6 ± 0.3 nM.

In the case of `COc1ccc2nc(C(F)(F)F)c(O[C@@H]3C[C@H]4C(=O)N[C@]5(C(=O)NS(=O)(=O)C6(C)CC6)C[C@H]5/C=C\CCCCC[C@H](NC(=O)O[C@H](C)C(F)(F)F)C(=O)N4C3)nc2c1` [NR01-147, (R)-1,1,1-Trifluoropropan-2-yl ((2R,6S,13aS,14aR,16aS,Z)-2-((7-methoxy-3-(trifluoromethyl)quinoxalin-2-yl)oxy)-14a-(((1-methylcyclopropyl)sulfonyl)carbamoyl)-5,16-dioxo-1,2,3,5,6,7,8,9,10,11,13a,14,14a,15,16,16a-hexadecahydrocyclopropa[e]pyrrolo[1,2-a][1,4]diazacyclopentadecin-6-yl)carbamate], the Ki [1] is reported as 17 ± 2.4 nM and the Ki [2] is reported as 2.8 ± 0.7 nM.

In the case of `COc1ccc2nc(C)c(O[C@@H]3C[C@H]4C(=O)N[C@]5(C(=O)NS(=O)(=O)C6(C)CC6)C[C@H]5/C=C\CCCCC[C@H](NC(=O)OC5CC(F)(F)C5)C(=O)N4C3)nc2c1` [NR01-149, 3,3-Difluorocyclobutyl ((2R,6S,13aS,14aR,16aS,Z)-2-((7-methoxy-3-methylquinoxalin-2-yl)oxy)-14a-(((1-methylcyclopropyl)sulfonyl)carbamoyl)-5,16-dioxo-1,2,3,5,6,7,8,9,10,11,13a,14,14a,15,16,16a-hexadecahydrocyclopropa[e]pyrrolo[1,2-a][1,4]diazacyclopentadecin-6-yl)carbamate], the Ki [1] is reported as 26 ± 1 nM and the Ki [2] is reported as 0.62 ± 0.3 nM.

With `COc1ccc2nc(C(F)(F)F)c(O[C@@H]3C[C@H]4C(=O)N[C@]5(C(=O)NS(=O)(=O)C6(C)CC6)C[C@H]5/C=C\CCCCC[C@H](NC(=O)OC5CC(F)(F)C5)C(=O)N4C3)nc2c1` [NR01-151, 3,3-Difluorocyclobutyl ((2R,6S,13aS,14aR,16aS,Z)-2-((7-methoxy-3-(trifluoromethyl)quinoxalin-2-yl)oxy)-14a-(((1-methylcyclopropyl)sulfonyl)carbamoyl)-5,16-dioxo-1,2,3,5,6,7,8,9,10,11,13a,14,14a,15,16,16a-hexadecahydrocyclopropa[e]pyrrolo[1,2-a][1,4]diazacyclopentadecin-6-yl)carbamate] the Ki [1] was 43.2 ± 6.3 nM and the Ki [2] was 10.9 ± 1.1 nM.

For `COc1ccc2nc(C(F)(F)F)c(O[C@@H]3C[C@H]4C(=O)N[C@]5(C(=O)NS(=O)(=O)C6(C)CC6)C[C@H]5/C=C\CCCCC[C@H](NC(=O)O[C@@H]5CCC[C@H]5F)C(=O)N4C3)nc2c1` [NR02-09, (1R,2R)-2-Fluorocyclopentyl ((2R,6S,13aS,14aR,16aS,Z)-2-((7-methoxy-3-(trifluoromethyl)quinoxalin-2-yl)oxy)-14a-(((1-methylcyclopropyl)sulfonyl)carbamoyl)-5,16-dioxo-1,2,3,5,6,7,8,9,10,11,13a,14,14a,15,16,16a-hexadecahydrocyclopropa[e]pyrrolo[1,2-a][1,4]diazacyclopentadecin-6-yl)carbamate], the Ki [1] was 18.9 ± 3.6 nM and the Ki [2] was 8 ± 1.8 nM.

Work on `COc1ccc2nc(C)c(O[C@@H]3C[C@H]4C(=O)N[C@]5(C(=O)NS(=O)(=O)C6(C)CC6)C[C@H]5/C=C\CCCCC[C@H](NC(=O)O[C@@H](C)C(F)(F)F)C(=O)N4C3)nc2c1` [NR02-23, (S)-1,1,1-Trifluoropropan-2-yl ((2R,6S,13aS,14aR,16aS,Z)-2-((7-methoxy-3-methylquinoxalin-2-yl)oxy)-14a-(((1-methylcyclopropyl)sulfonyl)carbamoyl)-5,16-dioxo-1,2,3,5,6,7,8,9,10,11,13a,14,14a,15,16,16a-hexadecahydrocyclopropa[e]pyrrolo [1,2-a][1,4]diazacyclopentadecin-6-yl)carbamate] yielded a Ki [1] of 40 ± 6 nM and a Ki [2] of 0.74 ± 0.2 nM.

Compound `COc1ccc2nc(C)c(O[C@@H]3C[C@H]4C(=O)N[C@]5(C(=O)NS(=O)(=O)C6(C)CC6)C[C@H]5/C=C\CCCCC[C@H](NC(=O)O[C@@H](C)C5CC5)C(=O)N4C3)nc2c1` [NR02-25, (S)-1-Cyclopropylethyl ((2R,6S,13aS,14aR,16aS,Z)-2-((7-methoxy-3-methylquinoxalin-2-yl)oxy)-14a-(((1-methylcyclopropyl)sulfonyl)carbamoyl)-5,16-dioxo-1,2,3,5,6,7,8,9,10,11,13a,14,14a,15,16,16a-hexadecahydrocyclopropa[e]pyrrolo [1,2-a][1,4]diazacyclopentadecin-6-yl)carbamate] has a Ki [1] of 31.9 ± 1.8 nM and a Ki [2] of 1.84 ± 0.12 nM.

For `COc1ccc2nc(C)c(O[C@@H]3C[C@H]4C(=O)N[C@]5(C(=O)NS(=O)(=O)C6(C)CC6)C[C@H]5/C=C\CCCCC[C@H](NC(=O)O[C@H](C)C5CC5)C(=O)N4C3)nc2c1` [NR02-26, (R)-1-Cyclopropylethyl ((2R,6S,13aS,14aR,16aS,Z)-2-((7-methoxy-3-methylquinoxalin-2-yl)oxy)-14a-(((1-methylcyclopropyl)sulfonyl)carbamoyl)-5,16-dioxo-1,2,3,5,6,7,8,9,10,11,13a,14,14a,15,16,16a-hexadecahydrocyclopropa[e]pyrrolo[1,2-a][1,4]diazacyclopentadecin-6-yl)carbamate], the Ki [1] was 23.5 ± 1.3 nM and the Ki [2] was 1.5 ± 0.06 nM.

`COc1ccc2nc(C(F)(F)F)c(O[C@@H]3C[C@H]4C(=O)N[C@]5(C(=O)NS(=O)(=O)C6(C)CC6)C[C@H]5/C=C\CCCCC[C@H](NC(=O)OC5(C)CC5)C(=O)N4C3)nc2c1` [NR02-31, 1-Methylcyclopropyl ((2R,6S,13aS,14aR,16aS,Z)-2-((7-methoxy-3-(trifluoromethyl)quinoxalin-2-yl)oxy)-14a-(((1-methylcyclopropyl)sulfonyl)carbamoyl)-5,16-dioxo-1,2,3,5,6,7,8,9,10,11,13a,14,14a,15,16,16a-hexadecahydrocyclopropa[e]pyrrolo[1,2-a][1,4]diazacyclopentadecin-6-yl)carbamate] gave a Ki [1] of 41.3 ± 7.3 nM and a Ki [2] of 11.4 ± 0.84 nM.

Compound `COc1ccc2nc(C(F)(F)F)c(O[C@@H]3C[C@H]4C(=O)N[C@]5(C(=O)NS(=O)(=O)C6(C)CC6)C[C@H]5/C=C\CCCCC[C@H](NC(=O)O[C@H](C)C5CC5)C(=O)N4C3)nc2c1` [NR02-34, (R)-1-Cyclopropylethyl ((2R,6S,13aS,14aR,16aS,Z)-2-((7-methoxy-3-(trifluoromethyl)quinoxalin-2-yl)oxy)-14a-(((1-methylcyclopropyl)sulfonyl)carbamoyl)-5,16-dioxo-1,2,3,5,6,7,8,9,10,11,13a,14,14a,15,16,16a-hexadecahydrocyclopropa[e]pyrrolo[1,2-a][1,4]diazacyclopentadecin-6-yl)carbamate] has a Ki [1] of 26.2 ± 0.6 nM and a Ki [2] of 11.8 ± 1.4 nM.

`COc1ccc2nc(C(F)(F)F)c(O[C@@H]3C[C@H]4C(=O)N[C@]5(C(=O)NS(=O)(=O)C6(C)CC6)C[C@H]5/C=C\CCCCC[C@H](NC(=O)OCC(C)C)C(=O)N4C3)nc2c1` [NR02-41, Isobutyl ((2R,6S,13aS,14aR,16aS,Z)-2-((7-methoxy-3-(trifluoromethyl)quinoxalin-2-yl)oxy)-14a-(((1-methylcyclopropyl)sulfonyl)carbamoyl)-5,16-dioxo-1,2,3,5,6,7,8,9,10,11,13a,14,14a,15,16,16a-hexadecahydrocyclopropa[e]pyrrolo[1,2-a][1,4]diazacyclopentadecin-6-yl)carbamate] showed a Ki [1] of 14.9 ± 1.4 nM and a Ki [2] of 4.01 ± 0.46 nM.
